In PubChem BioAssay AID179 (DTP/NCI, 2004):
The source made the active and inactive calls.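 Rule for the calls: active = compounds giving half or more protection of infected cells from virus-caused growth loss, again on retest; inactive = the rest.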

System: CEM cells HIV-1 protection, formazan growth assay
Assay: NCI AIDS Antiviral Assay
Settings: for IC50: measured here: growth of uninfected CEM cells
Method in brief: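 Category rules: moderately active means at least 50% protection on retest, and confirmed active means 100% protection reproducibly. The underlying data came from a formazan growth assay in HIV-1-infected CEM cells.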

SMILES | EC50 [µM] | IC50 [µM] | outcome
CCOC(=O)CC1(O)C(=O)N(Cc2ccccc2)c2ccccc21 (configuration not stated) | > 200 | > 200 | 
CC1=C(C(=O)NC2CCCCC2)CC(C(=O)NC2CCCCC2)=C(C)N1 | > 200 | 72.4 | 
O=C(Nc1ccc2c(O)c(N=Nc3ccc(S(=O)(=O)O)cc3)c(S(=O)(=O)O)cc2c1)Nc1ccc2c(O)c(N=Nc3ccc(S(=O)(=O)O)cc3)c(S(=O)(=O)O)cc2c1 | 8.91 | 110 | 
Cc1nn(C(=O)c2ccncc2)c2c1C(c1ccccc1[N+](=O)[O-])SC(N)=N2 (configuration not stated) |  |  | inactive
O=C1NC(=O)C(CC2CCCCCCCCCCC2=O)C(=O)N1 (configuration not stated) | > 112 | > 112 | 
CC(C)CC(=O)[O-].N.N.N.N.N.[Co+3].[O-][Cl+3]([O-])([O-])[O-] |  |  | inactive
C(=N\N=C\c1ccccn1)/c1ccccn1 | > 200 | 61.7 | 
O=C(O)c1cnc2[nH]ccn2c1=O | > 200 | > 200 | 
N#Cc1nc(Cc2cccs2)oc1N | > 200 | > 200 | 
OCC1CC2c3[nH]c4ccccc4c3CCN2C1 (configuration not stated) | > 282 | > 282 | 
CC1(C)OC2OC3C(I)CN(C(=O)OCc4ccccc4)C3C2O1 (configuration not stated) | > 200 | 110 | 
NC(=S)N/N=C1\COC(C(F)(F)F)(C(F)(F)F)C1 | > 200 | 166 | 
CCN1Cc2c(/C=C/c3ccccc3)nc3ccc(OC)cc3c2N(c2cccc(Cl)c2)C1 | > 41.7 | 7.76 | 
S=C(Nc1ccccn1)Nc1ccccc1Cl | > 200 | 123 | 
CCNC(C)(C)C(SSSC(c1ccc(Cl)cc1)C(C)(C)NCC)c1ccc(Cl)cc1 (configuration not stated) | > 200 | 9.12 | 
O=c1[nH]nc(-c2cccc([N+](=O)[O-])c2)[nH]1 | > 200 | 148 | 
CN(C)c1ccc(/C=C(\NC(=O)c2ccccc2)c2nn(C)c(=O)o2)cc1 | > 100 | > 100 | 
O=[N+]([O-])c1ccc(N=Cc2ccc(Cl)cc2)cc1 | > 200 | 9.77 | 
CCCCCC1CC=CC(NC(=O)OCc2ccccc2)C1/C=C/CCCC1OCCO1 (configuration not stated) |  |  | inactive
COc1cccc(NC(=O)c2c(SC)c(C#N)c(=O)n(N)c2N)c1 | > 200 | 107 | 
Oc1ccccc1C=Nc1ccccc1SSc1ccccc1N=Cc1ccccc1O | > 200 | 8.13 | 

SMILES | EC50 [µM] | IC50 [µM] | outcome
Cn1cc(NC(=O)Nc2cc(C(=O)Nc3cc(C(=O)Nc4cc(C(=O)Nc5cc(P(=O)(O)O)c6cccc(P(=O)(O)O)c6c5)n(C)c4)n(C)c3)n(C)c2)cc1C(=O)Nc1cc(C(=O)Nc2cc(C(=O)Nc3cc(P(=O)(O)O)c4cccc(P(=O)(O)O)c4c3)n(C)c2)n(C)c1 | 0.288 | 75.9 | 
CN(C)C(=C1C(Br)=C(Br)C(Br)=C1Br)N(C)C |  |  | inactive
CC1=C(C(=O)NNC(=O)c2ccccc2O)CC(C(=O)NNC(=O)c2ccccc2O)=C(C)N1 | > 200 | 1.66 | 
CC(=O)c1sc(Nc2ccc(Cl)c(Cl)c2)nc1C |  |  | inactive
O=S1Cc2ccccc2CSS1 (configuration not stated) |  |  | inactive
CCC1C(c2cccc(OC)c2O)c2cc3c(cc2OC1N1CCCC1)OCO3 (configuration not stated) | > 200 | 8.51 | 
CC(=O)O[C@H]1CCC2[C@@H]3CCC4C(=O)c5[nH]ncc5C[C@]4(C)C3CC[C@@]21C (some centres not stated) | > 87.1 | > 87.1 | 
OCc1cc2c(ccc3sc4ccc5sc6ccc7ncccc7c6c5c4c32)s1 | > 200 | 11.2 | 
CN(C(=O)c1ccccc1)c1ccc2c(c1)C(=O)c1ccccc1C2=O | > 15.1 | > 15.1 | 
Cc1nc2c(=S)[nH]ncc2[nH]1 | > 200 | > 200 | 
Cc1cc(C)nc(NS(=O)(=O)c2ccc(NNc3c4ccccc4nc4c(C(=O)Nc5ccc(S(=O)(=O)N=C(N)N)cc5)cccc34)cc2)n1 | > 200 | 31.6 | 
COc1ccc(NC(=O)C(=O)/C=C(\O)c2ccccc2)cc1 | > 200 | 9.33 | 
NS(=O)(=O)c1nnc(NC(=O)CCC(=O)O)s1 | > 200 | > 200 | 
COC1(O)C(=O)c2ccccc2OC1(OC)c1ccc(Cl)cc1 (configuration not stated) | > 200 | 4.57 | 
C/C(CC(=O)Nc1cccc(C)c1C)=N\NC(N)=S | > 468 | 245 | 
CCOC1SC(SC)=NN1C(=O)C(OC(C)=O)C(OC(C)=O)C(OC(C)=O)C(OC(C)=O)C(=O)N1N=C(SC)SC1OCC (configuration not stated) |  |  | inactive
CCO[C@@H]1CCC(S(=O)c2ccc(C)cc2)=CO1 (some centres not stated) | > 200 | > 200 | 
CCOC(=O)C1=CN=C2C(=O)N(c3ccccc3)N(C)C2(C)C1=N (configuration not stated) | > 200 | > 200 | 
COc1ccc(NC(=S)Nc2c(C)n(C)n(-c3ccccc3)c2=O)cc1 | > 200 | > 200 | 
COc1cc2c(cc1OC)[C@H](C(=O)O)[C@@H](c1ccc(OC(C)C)c(OC)c1)N(C)C2=O | > 200 | > 200 | 
Nc1nc2c(c(=O)[nH]1)N(C=O)C(CNc1ccc(C(=O)N[C@@H](CCC(=O)O)C(=O)O)cc1)CN2 (some centres not stated) | > 200 | > 200 | 

SMILES | EC50 [µM] | IC50 [µM] | outcome
CN1N=C(c2ccncc2)OC1c1cccc(F)c1 (configuration not stated) | > 200 | 79.4 | 
Nc1ccc(C(=O)N/C(=C\c2cccc([N+](=O)[O-])c2)c2nc3[nH]c(=S)[nH]c(=O)c3[nH]2)cc1 |  |  | inactive
CN(C)CCn1c(=O)nc2c3c(c([N+](=O)[O-])ccc31)Nc1ccc(O)cc1-2 | > 2 | 1.95 | 
O=c1[nH]nc(-c2ccccc2)n1-c1ccncc1 | > 200 | > 200 | 
COc1ccc(C(=O)c2ccc(OC)c(S(=O)(=O)N(C)C=O)c2)cc1S(=O)(=O)N(C)C=O | > 38.9 | > 38.9 | 
OC(c1ccc(Cl)cc1)(c1ccc(Cl)cc1)c1cncnc1 |  |  | inactive
CCOC(=O)c1cc(-n2nnc3ccccc32)cn1C | > 200 | 46.8 | 
CC1(C)CC(C)(C)CC(O)(C2(O)CC(C)(C)CC(C)(C)C2)C1 | > 8.71 | > 8.71 | 
CCc1c(O)n(Cc2nc3ccccc3[nH]2)c(=S)n(-c2ccccc2)c1=O | > 200 | > 200 | 
COc1cc(C2c3cc4c(cc3OC(NNC(N)=O)C2C)OCO4)cc(OC)c1OC (configuration not stated) | > 200 | 0.331 | 
CNn1c(-c2ccccc2)n[nH]c1=O | 110 | 151 | 
O=C1C2C3C=CC(C2C(=O)N1COP(=O)(O)O)C1C2C(=O)N(COP(=O)(O)O)C(=O)C2C31 (configuration not stated) | > 100 | > 100 | 
N#CC(NNC(=O)Cc1ccccc1)c1ccccc1O (configuration not stated) | > 129 | 17 | 
S=C1CC(c2ccccc2)Sc2ccccc2N1 (configuration not stated) | > 200 | 95.5 | 
CCNC(=S)N/N=C(/c1ccccc1)c1ccccn1 | > 200 | 1 | 
Nc1cnc(Nc2cccc3ccccc23)o1 | > 200 | > 200 | 
CCOC(=O)CNC(=O)Sc1ccccc1C(=O)N[C@@H](C)C(N)=O | 1.82 | 97.7 | 
CC(C)C1NC(=O)[C@H](C)OC(=O)[C@@H](C(C)C)NC(=O)[C@@H](C)OC(=O)C(C(C)C)NC(=O)[C@H](C)OC1=O (some centres not stated) | > 251 | > 251 | 
COC(=O)C1(C(=O)OC)C/C(C)=C(/C)SCCCS1 | > 200 | > 200 | 
C=C1c2nc3ccccc3n2C=C(c2ccc(Cl)cc2)N1c1ccccc1 | > 200 | 95.5 | 
Nc1ncnc2c1ncn2CC(=O)NCCCCO | > 200 | > 200 | 
